pIC50, pKd, pKi: −log10 of the molar value. Converted amounts (≈) assume the structure as drawn. The source made the active and inactive calls. The rule behind the calls is not given here.
Key:
[1] = molecular target: T1, Histone-lysine N-methyltransferase EZH2 (Homo sapiens, UniProt O75530+Q09028+Q15022+Q15910); test: Inhibition of wild-type EZH2 (unknown origin) expressed in baculovirus infected SF9 cells co-expressing SUZ12/EED/RbAp48 complex using HeLa cells derived oligonucleosomes as substrate after 60 mins in presence of [3H] SAM by scintillation counting
T1 sequence (Q15910 whole entry, one chain of several): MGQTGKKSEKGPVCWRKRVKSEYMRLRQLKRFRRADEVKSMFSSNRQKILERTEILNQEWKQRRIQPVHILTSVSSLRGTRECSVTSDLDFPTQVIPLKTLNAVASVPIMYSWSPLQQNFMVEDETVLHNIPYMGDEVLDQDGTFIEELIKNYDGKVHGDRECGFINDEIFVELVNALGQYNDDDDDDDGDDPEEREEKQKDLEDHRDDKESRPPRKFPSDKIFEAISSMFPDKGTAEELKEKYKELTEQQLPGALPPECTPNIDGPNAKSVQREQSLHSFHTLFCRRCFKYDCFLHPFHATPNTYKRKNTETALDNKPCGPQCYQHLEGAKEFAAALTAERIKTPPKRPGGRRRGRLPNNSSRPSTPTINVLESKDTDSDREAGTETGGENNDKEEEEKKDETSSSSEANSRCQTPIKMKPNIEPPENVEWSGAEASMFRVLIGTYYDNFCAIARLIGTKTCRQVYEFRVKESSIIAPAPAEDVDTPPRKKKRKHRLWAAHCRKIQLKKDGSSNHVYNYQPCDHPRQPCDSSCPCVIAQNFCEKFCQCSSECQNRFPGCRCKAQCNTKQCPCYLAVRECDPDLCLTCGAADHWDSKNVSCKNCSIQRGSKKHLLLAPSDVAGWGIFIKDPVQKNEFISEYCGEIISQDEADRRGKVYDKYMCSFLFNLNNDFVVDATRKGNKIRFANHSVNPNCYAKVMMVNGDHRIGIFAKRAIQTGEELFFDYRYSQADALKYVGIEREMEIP

[2] = Lipophilicity, log D of the compound at pH 7.4; conditions: buffer
[3] = Cytotoxicity against human KARPAS422 cells assessed as inhibition of cell proliferation after 72 hrs; type: functional, cell-based; conditions: KARPAS-422, 72 h
[4] = molecular target: Histone-lysine N-methyltransferase EZH2 (Homo sapiens, UniProt Q15910); test: Inhibition of EZH2 in human KARPAS422 cells assessed as reduction in H3K27Me3 levels after 72 hrs by ELISA; type: cell-based
Sequence of Histone-lysine N-methyltransferase EZH2 (Homo sapiens, UniProt Q15910) (Q15910 whole entry): as the sequence (Q15910 whole entry, one chain of several) above

[5] = molecular target: Histone-lysine N-methyltransferase EZH2 (Homo sapiens, UniProt O75530+Q09028+Q15022+Q15910, Y641N); test: Inhibition of EZH2 Y641N mutant (unknown origin) expressed in baculovirus infected SF9 cells co-expressing SUZ12/EED/RbAp48 complex using HeLa cells derived oligonucleosomes as substrate after 60 mins in presence of [3H] SAM by scintillation counting
Sequence of Histone-lysine N-methyltransferase EZH2 (Homo sapiens, UniProt O75530+Q09028+Q15022+Q15910, Y641N) (Q15910 whole entry Y641N, one chain of several): as the sequence (Q15910 whole entry, one chain of several) above, with Y641N counted along it

MDR1 [6] = test: Permeability across apical to basolateral side in MDCK cells expressing MDR1; type: ADME, cell-based, Canis lupus familiaris; conditions: dog, read-out: permeability
[7] = Permeability in RRCK cells; type: ADME, cell-based, Canis lupus familiaris, MDCKII-LE; conditions: dog, MDCK; read-out: permeability
MDR1 [8] = test: in vitro; conditions: dog, MDCK-MDR1
Description: Efflux ratio of permeability from basolateral to apical side over apical to basolateral side in MDCK cells expressing MDR1

[9] = Intrinsic clearance in mouse liver microsomes at 1 uM after 45 mins in presence of NADPH by LC-MS/MS analysis; type: ADME; conditions: read-out: CLH
[10] = Intrinsic clearance in human liver microsomes at 1 uM after 45 mins in presence of NADPH by LC-MS/MS analysis; type: ADME; conditions: read-out: CLH
[11] = Kinetic solubility of the compound; type: physicochemical; conditions: read-out: Kinetic_solubility
[12] = molecular target: T1, Histone-lysine N-methyltransferase EZH2; test: Binding affinity to EZH2 (unknown origin) expressed in baculovirus infected SF9 cells co-expressing SUZ12/EED/RbAp48 complex by ITC analysis
Mus musculus [13] = test: In vivo inhibition of EZH2 in human KARPAS422 cells xenografted in Scid beige mouse assessed as reduction in H3K27Me3 levels at 200 mg/kg, bid for 20 days measured 1 to 4 hrs post last dose on day 20 by ELISA; type: functional; conditions: KARPAS-422
[14] = Protein binding in mouse plasma at 30 to 300 mg/kg; type: ADME, organism-based; conditions: read-out: PPB (converted)
Mus musculus [15] = test: In vivo inhibition of EZH2 in Scid beige mouse xenografted with human KARPAS422 cells assessed as upregulation of TNFRSF21 expression at 300 mg/kg, bid for 20 days measured 1 to 4 hrs post last dose on day 20 relative to control; type: functional
KARPAS-422 [16] = test: Antitumor activity against human KARPAS422 cells xenografted in Scid beige mouse assessed as tumor stasis at 200 to 300 mg/kg, bid for 20 days measured on day 20; type: functional, organism-based
[17] = Time duration during which free plasma concentration stays at or below in vitro cell IC50 in mouse at 30 to 100 mg/kg; type: ADME, organism-based; conditions: in vivo
Mus musculus [18] = test: Toxicity in Scid beige mouse xenografted with human KARPAS422 cells assessed as body weight loss at 200 to 300 mg/kg, bid for 20 days measured during compound dosing; type: organism-based; conditions: in vivo, 480 h
Mus musculus [19] = test: In vivo inhibition of EZH2 in Scid beige mouse xenografted with human KARPAS422 cells assessed as reduction in H3K27Me3 levels at 300 mg/kg, bid for 20 days measured 1 to 4 hrs post last dose on day 20 by ELISA; type: functional; conditions: KARPAS-422
KARPAS-422 [20] = test: Antitumor activity against human KARPAS422 cells xenografted in Scid beige mouse assessed as tumor regression at 200 to 300 mg/kg, bid for 20 days measured on day 20; type: functional, organism-based
Mus musculus [21] = test: In vivo inhibition of EZH2 in Scid beige mouse xenografted with human KARPAS422 cells assessed as upregulation of PRDM1 expression at 300 mg/kg, bid for 20 days measured 1 to 4 hrs post last dose on day 20 relative to control; type: functional
Mus musculus [22] = test: In vivo inhibition of EZH2 in Scid beige mouse xenografted with human KARPAS422 cells assessed as upregulation of TNFRSF21 expression at 200 mg/kg, bid for 20 days measured 1 to 4 hrs post last dose on day 20 relative to control; type: functional
[23] = Time duration during which free plasma concentration stays above in vitro cell IC90 in mouse at 300 mg/kg; type: ADME, organism-based; conditions: in vivo
Mus musculus [24] = test: In vivo inhibition of EZH2 in Scid beige mouse xenografted with human KARPAS422 cells assessed as upregulation of PRDM1 expression at 200 mg/kg, bid for 20 days measured 1 to 4 hrs post last dose on day 20 relative to control; type: functional
KARPAS-422 [25] = test: Antitumor activity against human KARPAS422 cells xenografted in Scid beige mouse assessed as tumor growth inhibition at 200 to 300 mg/kg, bid for 20 days measured for 3 weeks post last dose; type: functional, organism-based

SMILES | pIC50 [1] | logD [2] | pIC50 [3] | pIC50 [4] | microsomal CLint at 1 µM [10] | further results
COc1cccc(C(=O)NCc2c(C)cc(C)[nH]c2=O)c1F | < 3.82 | 1.4 |  |  |  | 
COc1cccc(C(=O)NCc2c(C)cc(C)[nH]c2=O)c1C | 5.24 | 1.5 |  |  |  | 
Cc1cc(C)c(CN2CCc3c(Cl)cc(-c4cn[nH]c4)c(Cl)c3C2=O)c(=O)[nH]1 | 7.29 | 3 | 5.80 | 5.76 |  | pIC50 [5]: 6.57
Cc1cc(C)c(CNC(=O)c2ccccc2C)c(=O)[nH]1 | < 3.70 |  |  |  |  | 
Cc1cc(C)c(CN2CCc3c(F)cc(O[C@@H]4CCOC4)c(Cl)c3C2=O)c(=O)[nH]1 | 7.25 | 2.1 | 5.99 | 6.00 |  | pIC50 [5]: 6.59
Cc1cc(C)c(CN2CCc3c(Cl)cc(O[C@@H]4CCOC4)c(Cl)c3C2=O)c(=O)[nH]1 | 8.25 | 2.5 | 6.81 | 6.77 | 21 µL/min/mg | Papp A→B (MDR1 [6]): 4.5 ×10⁻⁶ cm/s; Papp [7]: 14.7 ×10⁻⁶ cm/s; pIC50 [5]: 7.74; efflux ratio (MDR1 [8]): 4.7; microsomal CLint at 1 µM [9]: 163 µL/min/mg; solubility kinetic [11]: 26 µM (≈ 11.4 µg/mL)
Cc1cc(C)c(CNC(=O)c2cccc(OC(C)C)c2Cl)c(=O)[nH]1 | 5.89 | 2 |  |  |  | 
COc1ccc2c(c1Cl)C(=O)N(Cc1c(C)cc(C)[nH]c1=O)CCC2 | 6.82 | 1.7 |  |  | 82 µL/min/mg | 
COc1cccc(C(=O)NCc2c(C)cc(C)[nH]c2=O)c1O | 4.36 | 1.9 |  |  |  | 
CCOc1cccc(C(=O)NCc2c(C)cc(C)[nH]c2=O)c1C | 5.70 | 2.1 |  |  |  | 
COc1cccc(C(=O)NCc2c(C)cc(C)[nH]c2=O)c1 | < 3.82 | 1.7 |  |  |  | 
COc1cccc(C(=O)NCc2c(C)cc(C)[nH]c2=O)c1OC | < 3.85 | 1.7 |  |  |  | 
Cc1cc(C)c(CN2CCc3ccc(O[C@@H]4CCOC4)c(Cl)c3C2=O)c(=O)[nH]1 |  | 1.5 | 6.29 | 6.10 | 21 µL/min/mg | Papp A→B (MDR1 [6]): 1.7 ×10⁻⁶ cm/s; Papp [7]: 12.3 ×10⁻⁶ cm/s; microsomal CLint at 1 µM [9]: 31 µL/min/mg; solubility kinetic [11]: 510 µM (≈ 205 µg/mL)
Cc1cc(C)c(CN2CCc3ccc(OC(C)C)c(C)c3C2=O)c(=O)[nH]1 | 6.80 |  |  |  | 102 µL/min/mg | pKd [12]: 7.43
Cc1cc(C)c(CNC(=O)c2cccc(OC(C)C)c2C)c(=O)[nH]1 | 5.85 | 2.1 |  |  |  | pKd [12]: 6.60
Cc1cc(C)c(CN2CCc3ccc(OC(C)C)c(Cl)c3C2=O)c(=O)[nH]1 |  | 2.7 | 5.94 | 5.93 | 53 to 53.8 µL/min/mg | Papp A→B (MDR1 [6]): 7.9 ×10⁻⁶ cm/s; Papp [7]: 19.6 ×10⁻⁶ cm/s; solubility kinetic [11]: 19.6 µM (≈ 7.35 µg/mL)
CCOc1ccc2c(c1Cl)C(=O)N(Cc1c(C)cc(C)[nH]c1=O)CC2 |  | 2.2 |  |  | 37 µL/min/mg | 
COc1ccc2c(c1Cl)C(=O)N(Cc1c(C)cc(C)[nH]c1=O)CCO2 | 6.19 | 1.3 |  |  | 40 µL/min/mg | 
Cc1cc(C)c(CN2CCc3c(C)cc(O[C@@H]4CCOC4)c(Cl)c3C2=O)c(=O)[nH]1 | 7.74 | 2.1 | 6.39 | 6.54 |  | pIC50 [5]: 7.21
COc1ccc2c(c1Cl)C(=O)N(Cc1c(C)cc(C)[nH]c1=O)CC2 |  | 1.8 |  |  | 35 µL/min/mg | 
Cc1cc(C)c(CN2CCc3c(Cl)cc(-c4c(C)nn(C)c4C)c(Cl)c3C2=O)c(=O)[nH]1 | 5.82 | 3.4 | 4.89 | 4.82 |  | pIC50 [5]: 5.22
Cc1cc(C)c(CN2CCc3ccc(OC(C)C)cc3C2=O)c(=O)[nH]1 |  | 2.5 |  |  | 19 µL/min/mg | 
COc1cccc(C(=O)NCc2c(C)cc(C)[nH]c2=O)c1Cl | 5.14 | 1.2 |  |  | 8 µL/min/mg | 
Cc1cc(C)c(CN2CCc3c(Cl)cc(-c4cn[nH]c4C)c(Cl)c3C2=O)c(=O)[nH]1 | 7.62 | 3.1 | 5.87 | 6.06 |  | pIC50 [5]: 6.96
Cc1cc(C)c(CN2CCc3c(Cl)cc(-c4c(C)noc4C)c(Cl)c3C2=O)c(=O)[nH]1 |  | 3.1 | 7.60 | 7.82 | 107 µL/min/mg | Papp A→B (MDR1 [6]): 5.2 ×10⁻⁶ cm/s; inhibition in vivo at 200 mg/kg (Mus musculus [13]): 55.5%; Papp [7]: 15.7 ×10⁻⁶ cm/s; fraction unbound [14]: 0.85; fold change (FC) (Mus musculus [15]): 208.9; Activity (KARPAS-422 [16]): Active; Time [17]: 6 h; pKi [1]: 9.15; efflux ratio (MDR1 [8]): 4.6; Activity (Mus musculus [18]): < 10%; microsomal CLint at 1 µM [9]: 531 µL/min/mg; inhibition in vivo at 300 mg/kg (Mus musculus [19]): 66.4%; Activity (KARPAS-422 [20]): Active; fold change (FC) (Mus musculus [21]): 57.9; fold change (FC) (Mus musculus [22]): 99.2; Time [23]: <= 6 hr; fold change (FC) (Mus musculus [24]): 31.6; solubility kinetic [11]: 93.5 µM (≈ 41.7 µg/mL); TGI (KARPAS-422 [25]): Active
Cc1cc(C)c(CN2CCc3c(Cl)cc(-c4c(C)n[nH]c4C)c(Cl)c3C2=O)c(=O)[nH]1 | 7.80 | 3.4 | 6.02 | 6.30 |  | pIC50 [5]: 7.09
Cc1cc(C)c(CN2CCc3ccc(-c4c(C)noc4C)c(Cl)c3C2=O)c(=O)[nH]1 | 8.49 | 2.6 | 6.92 | 6.98 |  | pIC50 [5]: 8.06; pKi [5]: 8.20; pKi [1]: 8.70

Reference: ChEMBL document CHEMBL3856228, “Design and Synthesis of Pyridone-Containing 3,4-Dihydroisoquinoline-1(2H)-ones as a Novel Class of Enhancer of Zeste Homolog 2 (EZH2) Inhibitors” (J Med Chem, 2016)
